Laboratory results published in patent US20260076902A1, “LIQUID, STORAGE STABLE, DIRECTLY INJECTABLE, PANTOPRAZOLE FORMULATIONS, THEIR USES AND MANUFACTURING” (Etico Lifesciences Private Limited, priority 2024, published 2026).

Assay: Dilution with 0.9% sodium chloride solution, precipitation
Type: physicochemical
Details: alpha tocopherol tested as stabilizer

## Cc1c(C)c2c(c(C)c1O)CC[C@@](C)(CCC[C@H](C)CCC[C@H](C)CCCC(C)C)O2 [Alpha tocopherol]
  behaviour upon dilution with 0.9% sodium chloride solution: precipitation was formed
